The text below walks through data of US9539298B2, “Lissencephaly therapeutic agent” (OSAKA CITY UNIVERSITY, priority 2010, dated 2017).

In this assay the test system is fibroblasts derived from human lissencephaly patient (Lis1 +/−). Put plainly: Protein quantitative analysis (western blotting) in human fibroblasts. The assay is classed as cell-based. The settings on record: final SNJ-1945 concentration=200μ, 2-hour culture, FIGS. 21 and 22. On the procedure:
In a clean bench, the cells were placed in a 6-well plate in an amount of 3×10^5 cells per well and cultured for 16 hours, thereby adhering the cells to each well. The culture medium in the well was discarded, and the SNJ-1945-containing culture solution (the culture solution containing SNJ-1945-dissolved in Dimethyl Sulfoxide (Sigma, D-5879); final SNJ-1945 concentration=200μ) was added in an amount of 2 ml/well, and a 2-hour culture was performed. As a control, another culture was performed using a culture medium containing the same amount of Dimethyl Sulfoxide (Sigma, D-5879).
After 2-hour culture by adding SNJ-1945, the cells were washed twice with PBS (−), 500 μl of PBS (−), was added and the cells were scraped with a cell scraper. The scraped cells were collected to a 1.5 ml tube to be subjected to centrifugation for 5 minutes at 4° C. and 15000 rpm; the supernatant was discarded, and a cell precipitate was obtained. […]
The absorbency of the cell extract was measured, and the protein amount of the entire solution was determined. […] The absorbency at 595 nm was measured using an ARVO Sx (PerkinElmer) 96-well plate reader, and the entire protein amount was determined.
Then, SDS-PAGE was conducted. […] Based on the protein amount determined by the Bradford method, the cells were loaded to each well of the gel in an amount of 10 μg/well. […]

Take `COCCOCCOC(=O)N[C@@H](CC(C)C)C(=O)N[C@@H](Cc1ccccc1)C(=O)C(=O)NC1CC1` [compound 17, ((1S)-1-((((1S)-1-Benzyl-2,3-dioxo-3-(cyclopropylamino)propyl)amino)carbonyl)-3-methylbutyl)carbamic acid 5-methoxy-3-oxapentyl ester]: the “LIS1 amount (western blotting)” value is reported as “recovered nearly to the extent of the LIS1 level” and the “amount of cytoplasmatic dynein intermediate chain (western blotting)” value is given as “also increased”.
